Entries after “also recorded” stand apart in the source; their conditions may differ. Read-outs that look alike come from different tables or passages of the source.
Experiment: Accelerated stability studies of API/stabilizer preparations (lactam impurity A by HPLC)
Type: physicochemical

SMILES | effect of EUDRAGIT E on formation of lactam impurity A | effect of EUDRAGIT E on formation of lactam impurity A (with EUDRAGIT E PO 1, 5, 10% (m/m), stored at 60° C. in closed glass vials, HPLC)
NCC1(CC(=O)O)CCCCC1 [gabapentin] | destabilization effect | 
CC(C)C[C@H](CN)CC(=O)O [pregabalin] | destabilization effect | 
NCC(CC(=O)O)c1ccc(Cl)cc1 (stereo not drawn) [baclofen, 4-amino-3-(4-chlorophenyl)butanoic acid] |  | stabilized; also recorded: stabilization effect
